Test results from PubChem BioAssay (NCI).
Values joined by “and” are separate entries in the source; they are usually repeats but may differ in a detail not shown here. Equal values may be shown once.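 Grown in 96-well plates, cells were treated for 48 hours with each compound at five concentrations. Insufficient inhibition: endpoint recorded as highest concentration tested. GI50 = concentration required for 50% inhibition of growth. TGI: total growth inhibition.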

Columns and labels:
Assay in all cases: NCI-60 cell line screen, 48 h
[1] = test system: OVCAR-4 ovarian
[2] = test system: SK-MEL-28 melanoma
[3] = test system: HCT-116 colon
[4] = test system: UACC-62 melanoma
[5] = test system: SF-539 CNS
[6] = test system: COLO 205 colon
[7] = test system: T-47D breast
[8] = test system: NCI-H460 lung
[9] = test system: SW-620 colon
[10] = test system: SR leukemia
[11] = test system: MDA-N

Structure (SMILES) | TGI [1] | TGI [2] | TGI [3] | TGI [4] | TGI [5] | TGI [6] | TGI [7] | TGI [8] | TGI [9] | TGI [10] | TGI [11] | GI50 [1] | GI50 [10] | GI50 [3] | GI50 [4] | GI50 [5] | GI50 [6] | GI50 [7] | GI50 [8] | GI50 [9]
FC(F)(F)c1ccc(Cc2nc3cc4ccccc4cc3[nH]2)cc1 | > 100 µM | > 100 µM | > 100 µM | > 100 µM | > 100 µM | > 100 µM | > 100 µM | > 100 µM | > 100 µM |  |  |  |  |  |  |  |  |  |  | 
c1cnn(C23C4C5C6C4C2C6C53)c1 (configuration not stated) |  | > 100 µM | > 100 µM |  | > 100 µM | > 100 µM | > 100 µM | > 100 µM | > 100 µM | > 100 µM | > 100 µM |  |  |  |  |  |  |  |  | 
COc1cc([C@@H]2c3cc4c(c(O)c3C[C@H]3COC(=O)[C@@H]32)OCO4)cc(OC)c1OC |  |  |  |  |  |  | > 231 µM |  |  |  |  | 2.3 µM | 1.46 µM and 0.812 µM | 0.0589 µM | 0.144 µM | 0.065 µM | 0.239 µM | 0.324 µM | 0.0564 µM | 0.123 µM
CC1(C)CC(=O)C(/C=N/C(N)=S)=C(O)C1 | > 100 µM | > 100 µM | > 100 µM | > 100 µM | > 100 µM | > 100 µM |  | > 100 µM | > 100 µM |  | > 100 µM |  |  |  |  |  |  |  |  | 
COC(=O)[C@H](Cc1ccccc1)NC(=O)/C(=C/C(C)C)NC(=O)[C@H](CCSC)NC=O | > 100 µM | > 100 µM | > 100 µM | > 100 µM | > 100 µM | > 100 µM |  | > 100 µM | > 100 µM | > 100 µM |  |  |  |  |  |  |  |  |  | 
Nc1ccccc1Nc1ccccc1C(=O)[O-].Nc1ccccc1Nc1ccccc1C(=O)[O-].[Zn+2] |  | > 100 µM | > 100 µM | 68.2 µM | > 100 µM | > 100 µM |  | > 100 µM | > 100 µM |  |  |  |  |  |  |  |  |  |  | 
O=C(Cn1cc(-c2ccccc2)nn1)NC1CCCCC1 | > 100 µM | > 100 µM | > 100 µM |  | > 100 µM | > 100 µM |  | > 100 µM | > 100 µM | > 100 µM |  |  |  |  |  |  |  |  |  | 
COc1cc(/C=C2/SC(c3ccccc3)N(Cc3ccccc3)C2=O)cc(OC)c1OC (configuration not stated) | > 100 µM | > 100 µM | > 100 µM | > 100 µM |  | 45.9 µM | > 100 µM | > 100 µM | > 100 µM | 45.1 µM | > 100 µM |  |  |  |  |  |  |  |  | 
NC1=NC2=c3ccccc3=C(c3cnccn3)C2(c2cnccn2)c2ccccc21 (configuration not stated) | > 100 µM | > 100 µM | > 100 µM | > 100 µM | > 100 µM | > 100 µM |  | > 100 µM | > 100 µM | > 100 µM |  |  |  |  |  |  |  |  |  | 
O=C1NC(=S)N/C1=C\c1cc2c(=O)c3ccccc3sc2s1 | > 100 µM | > 100 µM | > 100 µM | > 100 µM |  | > 100 µM | > 100 µM | > 100 µM | > 100 µM | > 100 µM | > 100 µM |  |  |  |  |  |  |  |  | 
CC(=O)OC1CC2CCN3C(=O)c4cc5c(cc4[C@H](C1OC(C)=O)C23)OCO5 (some centres not stated) |  | > 100 µM | > 100 µM | > 100 µM | > 100 µM | > 100 µM |  | > 100 µM | > 100 µM | > 100 µM |  |  |  |  |  |  |  |  |  | 
O=C(NC(Cl)(C(F)(F)F)C(F)(F)F)c1ccc(F)cc1 | > 100 µM | > 100 µM | > 100 µM |  | > 100 µM | > 100 µM | > 100 µM | > 100 µM | > 100 µM | > 100 µM | > 100 µM |  |  |  |  |  |  |  |  | 
CCN1CCCC(C#N)(c2ccccc2)CC1 (configuration not stated) | > 100 µM | > 100 µM | > 100 µM |  |  | > 100 µM | > 100 µM | > 100 µM | > 100 µM | > 100 µM | > 100 µM |  |  |  |  |  |  |  |  | 
O=C(O)CSCc1cc2c(O)c(c1)Cc1cc(CSCC(=O)O)cc(c1O)Cc1cc(CSCC(=O)O)cc(c1O)Cc1cc(CSCC(=O)O)cc(c1O)C2 | > 100 µM | > 100 µM | > 100 µM |  | > 100 µM | > 100 µM | > 100 µM | > 100 µM | > 100 µM | > 100 µM | > 100 µM |  |  |  |  |  |  |  |  | 
O=Cc1c2n(c3ccccc13)N[C@@](Cc1ccc(O)cc1)(C(=O)O)C2 | > 100 µM | > 100 µM | > 100 µM | > 100 µM | > 100 µM | > 100 µM | > 100 µM |  | > 100 µM | > 100 µM | > 100 µM |  |  |  |  |  |  |  |  | 
N#C[C@H](C(=O)c1ccccc1F)c1nc2ccccc2s1 |  | > 100 µM | 61.3 µM | > 100 µM | 59.8 µM | 53.8 µM | > 100 µM | 94.2 µM | > 100 µM |  | > 100 µM |  |  |  |  |  |  |  |  | 
CCN(CC)Cc1cc(Nc2c3ccccc3nc3c2[nH]c2ccccc23)cc(CN(CC)CC)c1O | 1.81 µM | 5.3 µM | 3.33 µM | 3.02 µM | 2.29 µM | 1.74 µM |  | 2.01 µM | 2.47 µM |  | 2.07 µM |  |  |  |  |  |  |  |  | 
C(/C=C/c1ccccc1)=Nc1ccc2c(c1)Cc1ccccc1-2 | > 100 µM | > 100 µM | > 100 µM | > 100 µM |  |  | > 100 µM | > 100 µM | > 100 µM | 90.4 µM | > 100 µM |  |  |  |  |  |  |  |  | 
CCOc1ccc2nc3nc(=O)[nH]c(C)c3c(NCCCN(CC)CC)c2c1 | > 100 µM | > 100 µM | > 100 µM | > 100 µM | > 100 µM | > 100 µM | > 100 µM | > 100 µM | > 100 µM |  | > 100 µM |  |  |  |  |  |  |  |  | 
CCOP(=O)(C=C=C1CCC2[C@@H]3CCc4cc(OC)ccc4C3CC[C@]12C)OCC (some centres not stated) | 21.3 µM | 23.9 µM | 19.2 µM | 18.2 µM | 29 µM | 22.7 µM | 26.6 µM | 27.6 µM | 29.2 µM |  | 26 µM |  |  |  |  |  |  |  |  | 
N#CC(N)c1ccc(OCCCCCCCCCCOc2ccc(C(N)C#N)cc2)cc1 (configuration not stated) | > 100 µM | > 100 µM | > 100 µM | > 100 µM | > 100 µM | > 100 µM | > 100 µM | > 100 µM | > 100 µM |  | > 100 µM |  |  |  |  |  |  |  |  | 
O=C(CC(CC(=O)Oc1c(Br)cc(Br)cc1C(=O)O)C(=O)Oc1c(Br)cc(Br)cc1C(=O)O)Oc1c(Br)cc(Br)cc1C(=O)O | > 100 µM | > 100 µM | > 100 µM | > 100 µM | > 100 µM | > 100 µM |  | > 100 µM | > 100 µM |  |  |  |  |  |  |  |  |  |  | 
